In US6358885B1, “Substituted phenylheterocyclic herbicides” (Mississippi State University, priority 1992, dated 2002):

Tests used:
[1] = tested on: velvetleaf; assay: Test B preemergence/postemergence greenhouse plant response rating 0 to 10; format: in vivo, Abutilon theophrasti; details: 0 to 10 scale
Summary of the method: (§1)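 Postemergence treatment of plants two to eighteen cm tall ran alongside preemergence treatment of planted seed, each using compound in a non-phytotoxic solvent.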

[2] = tested on: cheatgrass; assay: as above; format: in vivo, Bromus secalinus; details: 0 to 10 scale
Summary of the method: as §1

[3] = tested on: soybean; assay: as above; format: in vivo, Glycine max; details: 0 to 10 scale
Summary of the method: as §1

[4] = tested on: sorghum; assay: Test C preemergence/postemergence greenhouse plant response rating 0 to 100; format: in vivo, Sorghum bicolor; details: POSTEMERGENCE; for Plant response rating, Sorghum: 0 to 100 scale
Summary of the method: (§2)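 Compounds in non-phytotoxic solvent went onto sandy loam before emergence (seeded one day earlier) or onto plants at the one-to-four leaf stage. Duck salad was treated via flood water (~2.5 cm, maintained) over silt loam.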

[5] = tested on: corn; assay: as above; format: in vivo, Zea mays; details: POSTEMERGENCE; for Plant response rating, Corn: 0 to 100 scale
Summary of the method: as §2

[6] = tested on: umbrella sedge; assay: Test C flood test plant response rating 0 to 100; format: in vivo, Cyperus difformis; details: for Plant response rating (0 to 100), Umbrella sedge: under POSTEMERGENCE head (flood test species); for Plant response rating Umbrella sedge: flood test species listed under POSTEMERGENCE, 0 to 100 scale
Summary of the method: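 Compounds in non-phytotoxic solvent applied preemergence to sandy loam one day after planting, postemergence at the 1–4 leaf stage, or to ~2.5 cm floodwater over silt loam.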

[7] = tested on: soybean; assay: Test C preemergence/postemergence greenhouse plant response rating 0 to 100; format: in vivo, Glycine max; details: POSTEMERGENCE; for Plant response rating, Soybean: 0 to 100 scale
Summary of the method: as §2

[8] = tested on: morningglory; assay: as above; format: in vivo, Ipomoea hederacea; details: POSTEMERGENCE; for Plant response rating, Morningglory: 0 to 100 scale
Summary of the method: as §2

[9] = tested on: velvetleaf; assay: as above; format: in vivo, Abutilon theophrasti; details: POSTEMERGENCE; for Plant response rating, Velvetleaf: 0 to 100 scale
Summary of the method: as §2

[10] = tested on: rice; assay: Test B preemergence/postemergence greenhouse plant response rating 0 to 10; format: in vivo, Oryza sativa; details: 0 to 10 scale
Summary of the method: as §1

[11] = tested on: lambsquarters; assay: Test C preemergence/postemergence greenhouse plant response rating 0 to 100; format: in vivo, Chenopodium album; details: POSTEMERGENCE; for Plant response rating Lambsquarters: 0 to 100 scale
Summary of the method: as §2

[12] = tested on: purple nutsedge; assay: Test B preemergence/postemergence greenhouse plant response rating 0 to 10; format: in vivo, Cyperus rotundus; details: 0 to 10 scale
Summary of the method: as §1

[13] = tested on: sugar beet; assay: Test C preemergence/postemergence greenhouse plant response rating 0 to 100; format: in vivo, Beta vulgaris; details: POSTEMERGENCE; for Plant response rating, Sugar beet: 0 to 100 scale
Summary of the method: as §2

[14] = tested on: wild buckwheat; assay: Test B preemergence/postemergence greenhouse plant response rating 0 to 10; format: in vivo, Polygonum convolvulus; details: 0 to 10 scale
Summary of the method: as §1

[15] = tested on: barley; assay: Test C preemergence/postemergence greenhouse plant response rating 0 to 100; format: in vivo, Hordeum vulgare; details: POSTEMERGENCE; for Plant response rating Barley Igri: 0 to 100 scale
Summary of the method: as §2

[16] = tested on: lambsquarters; assay: Test B preemergence/postemergence greenhouse plant response rating 0 to 10; format: in vivo, Chenopodium album; details: 0 to 10 scale
Summary of the method: as §1

[17] = tested on: cotton; assay: as above; format: in vivo, Gossypium hirsutum; details: 0 to 10 scale
Summary of the method: as §1

[18] = tested on: rape; assay: Test C preemergence/postemergence greenhouse plant response rating 0 to 100; format: in vivo, Brassica napus; details: POSTEMERGENCE; for Plant response rating, Rape: 0 to 100 scale
Summary of the method: as §2

C=C(Cl)COc1cc(-c2nn3c(c2Cl)CCCC3)c(F)cc1Cl [Compound 40]
90: Plant response rating (0 to 100), Velvetleaf ([9]; Rate 16 g/ha) | Plant response rating (0 to 100), Velvetleaf ([9]; Rate 31 g/ha)
8: Plant response rating, Velvetleaf ([1]; Rate 200 g/ha, PREEMERGENCE) | Plant response rating, Soybean ([3]; Rate 200 g/ha, POSTEMERGENCE)
20: Plant response rating (0 to 100), Sorghum ([4]; Rate 16 g/ha) | Plant response rating (0 to 100), Sorghum ([4]; Rate 31 g/ha) | Plant response rating (0 to 100), Barley Igri ([15]; Rate 16 g/ha)
7: Plant response rating, Cotton ([17]; Rate 200 g/ha, PREEMERGENCE)
50: Plant response rating, Sorghum ([4]; 125 g/ha) | Plant response rating, Soybean ([7]; 62 g/ha) | Plant response rating, Morningglory ([8]; 62 g/ha) | Plant response rating (0 to 100), Morningglory ([8]; Rate 16 g/ha) | Plant response rating (0 to 100), Morningglory ([8]; Rate 31 g/ha) | Plant response rating (0 to 100), Rape ([18]; Rate 16 g/ha)
40: Plant response rating (0 to 100), Soybean ([7]; Rate 16 g/ha) | Plant response rating (0 to 100), Soybean ([7]; Rate 31 g/ha) | Plant response rating Barley Igri ([15]; 125 g/ha)
80: Plant response rating Lambsquarters ([11]; 62 g/ha)
60: Plant response rating, Soybean ([7]; 125 g/ha)
100: Plant response rating, Velvetleaf ([9]; 62 g/ha) | Plant response rating, Velvetleaf ([9]; 125 g/ha) | Plant response rating Lambsquarters ([11]; 125 g/ha) | Plant response rating, Sugar beet ([13]; 62 g/ha) | Plant response rating, Sugar beet ([13]; 125 g/ha) | Plant response rating (0 to 100), Sugar beet ([13]; Rate 16 g/ha) | Plant response rating (0 to 100), Sugar beet ([13]; Rate 31 g/ha)
30: Plant response rating, Sorghum ([4]; 62 g/ha) | Plant response rating, Corn ([5]; 62 g/ha) | Plant response rating, Corn ([5]; 125 g/ha) | Plant response rating (0 to 100), Corn ([5]; Rate 16 g/ha) | Plant response rating (0 to 100), Corn ([5]; Rate 31 g/ha) | Plant response rating Barley Igri ([15]; 62 g/ha) | Plant response rating (0 to 100), Barley Igri ([15]; Rate 31 g/ha)
70: Plant response rating Umbrella sedge ([6]; 125 g/ha) | Plant response rating, Morningglory ([8]; 125 g/ha) | Plant response rating (0 to 100), Lambsquarters ([11]; Rate 16 g/ha) | Plant response rating (0 to 100), Lambsquarters ([11]; Rate 31 g/ha) | Plant response rating, Rape ([18]; 62 g/ha) | Plant response rating, Rape ([18]; 125 g/ha) | Plant response rating (0 to 100), Rape ([18]; Rate 31 g/ha)
9: Plant response rating, Wild buckwheat ([14]; POSTEMERGENCE, Rate 50 g/ha) | Plant response rating, Wild buckwheat ([14]; Rate 200 g/ha, PREEMERGENCE) | Plant response rating, Lambsquarter ([16]; POSTEMERGENCE, Rate 50 g/ha)
4: Plant response rating, Cheatgrass ([2]; POSTEMERGENCE, Rate 50 g/ha) | Plant response rating, Cheatgrass ([2]; POSTEMERGENCE, Rate 200 g/ha) | Plant response rating, Cheatgrass ([2]; Rate 200 g/ha, PREEMERGENCE) | Plant response rating, Nutsedge ([12]; Rate 200 g/ha, POSTEMERGENCE)
2: Plant response rating, Velvetleaf ([1]; POSTEMERGENCE, Rate 50 g/ha) | Plant response rating, Velvetleaf ([1]; PREEMERGENCE, Rate 50 g/ha) | Plant response rating, Soybean ([3]; Rate 200 g/ha, PREEMERGENCE) | Plant response rating, Nutsedge ([12]; POSTEMERGENCE, Rate 50 g/ha)
1: Plant response rating, Cotton ([17]; PREEMERGENCE, Rate 50 g/ha)
10: Plant response rating, Velvetleaf ([1]; Rate 200 g/ha, POSTEMERGENCE) | Plant response rating Umbrella sedge ([6]; 62 g/ha) | Plant response rating, Wild buckwheat ([14]; Rate 200 g/ha, POSTEMERGENCE) | Plant response rating, Lambsquarter ([16]; PREEMERGENCE, Rate 50 g/ha) | Plant response rating, Lambsquarter ([16]; Rate 200 g/ha, POSTEMERGENCE) | Plant response rating, Lambsquarter ([16]; Rate 200 g/ha, PREEMERGENCE) | Plant response rating, Cotton ([17]; POSTEMERGENCE, Rate 50 g/ha) | Plant response rating, Cotton ([17]; POSTEMERGENCE, Rate 200 g/ha)
5: Plant response rating, Soybean ([3]; POSTEMERGENCE, Rate 50 g/ha) | Plant response rating, Rice ([10]; POSTEMERGENCE, Rate 50 g/ha) | Plant response rating, Rice ([10]; Rate 200 g/ha, POSTEMERGENCE)
0: Plant response rating, Cheatgrass ([2]; PREEMERGENCE, Rate 50 g/ha) | Plant response rating, Soybean ([3]; PREEMERGENCE, Rate 50 g/ha) | Plant response rating (0 to 100), Umbrella sedge ([6]; Rate 16 g/ha) | Plant response rating (0 to 100), Umbrella sedge ([6]; Rate 31 g/ha) | Plant response rating, Rice ([10]; PREEMERGENCE, Rate 50 g/ha) | Plant response rating, Rice ([10]; Rate 200 g/ha, PREEMERGENCE) | Plant response rating, Nutsedge ([12]; PREEMERGENCE, Rate 50 g/ha) | Plant response rating, Nutsedge ([12]; Rate 200 g/ha, PREEMERGENCE)
